Test results as given in ChEMBL document CHEMBL4680272 (Eur J Med Chem, 2020).

Test: Inhibition of Influenza A virus (A/California/04/2009 (H1N1-H274Y)) Neuraminidase using MUNANA as substrate preincubated for 5 to 15 mins followed by substrate addition and measured after 30 mins by fluorescence spectrophotometric method

Structure (SMILES)	IC50 [µM]
CCC(CC)O[C@@H]1C=C(C(=O)O)C[C@H](NC(N)=O)[C@H]1NC(C)=O	0.667
CCC(CC)O[C@@H]1C=C(C(=O)O)C[C@H](N)[C@H]1NC(C)=O [OSELTAMIVIR CARBOXYLATE]	4.07
